Where two headings read alike, the source gives them in different places. Where only a bound is given, the exact number is not on record here.

The assay deals with T1, IKKε (Homo sapiens, UniProt Q14164).
T1 construct: His-tag (in-house Sf9 preparation) or GST-tag (purchased Invitrogen preparation); these are alternatives, not both on one protein; host or cells: Sf9 cells
T1 sequence (Q14164 1-716): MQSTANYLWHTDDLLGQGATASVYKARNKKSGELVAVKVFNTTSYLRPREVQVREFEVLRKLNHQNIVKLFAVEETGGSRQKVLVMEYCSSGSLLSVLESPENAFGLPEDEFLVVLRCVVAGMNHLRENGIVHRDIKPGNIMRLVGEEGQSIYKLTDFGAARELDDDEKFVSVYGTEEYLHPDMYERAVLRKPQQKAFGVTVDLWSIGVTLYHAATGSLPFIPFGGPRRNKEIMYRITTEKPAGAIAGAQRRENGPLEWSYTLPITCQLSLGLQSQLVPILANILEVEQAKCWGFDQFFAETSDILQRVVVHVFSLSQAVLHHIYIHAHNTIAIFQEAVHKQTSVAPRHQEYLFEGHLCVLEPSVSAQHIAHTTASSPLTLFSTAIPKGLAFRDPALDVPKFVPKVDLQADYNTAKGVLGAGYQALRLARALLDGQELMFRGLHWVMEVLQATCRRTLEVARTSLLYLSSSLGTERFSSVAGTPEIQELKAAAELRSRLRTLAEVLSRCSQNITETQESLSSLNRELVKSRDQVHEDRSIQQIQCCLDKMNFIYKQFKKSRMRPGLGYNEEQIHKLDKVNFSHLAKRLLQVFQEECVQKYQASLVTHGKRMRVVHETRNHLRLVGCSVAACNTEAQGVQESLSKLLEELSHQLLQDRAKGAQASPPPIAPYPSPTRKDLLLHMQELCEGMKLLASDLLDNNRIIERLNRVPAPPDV
The assay can be described thus: In-vitro IKKε kinase assay (radiolabelled ATP, filterplate). The format is biochemical. The method, then:
IKKε enzyme was produced as a His-tag fusion in Sf9 cells or purchased as a GST-tag fusion (Invitrogen, Carlsbad, Calif.). TBK1 enzyme was produced as a His-tag fusion in Sf9 cells. Kinase reactions were carried out in reaction buffer using myelin basic protein (Millipore, Ballerica, Mass.), casein or dephosphorylated casein (Sigma, St. Louis, Mo.) as substrate at an ATP concentration equal to twice the Km,ATP value for each enzyme, corresponding to 32 μM ATP for IKKε and 60 μM ATP for TBK1. Radiolabelled [γ^33]ATP (PerkinElmer, Waltham, Mass.) in the amount of […] (IKKe, “normal”) or 0.7 μCi (IKKε, “sensitized”) or 1.25 μCi (TBK1) was added to each assay. Final enzyme concentrations were 0.1 or 0.015 μg/ml (IKKε) and 0.1 or 0.02 μg/ml (TBK1) for the “normal” and “sensitized” assay, respectively, and “sensitized” assays were conducted using only dephosphorylated casein as substrate. Test compounds (or DMSO solvent as a control) were added prior to initiation of the reactions. Reactions were terminated after 30-45 minutes by adding 3% phosphoric acid. Terminated reactions were transferred to P-81 cellulose phosphate filterplates (Whatman, Inc., Piscataway, N.J.) and washed with 1% phosphoric acid on a vacuum apparatus. After air drying, scintillant (PerkinElmer, Waltham, Mass.) was added and the plates were read on a PerkinElmer TopCount NXT instrument. Counts were normalized to DMSO controls after background subtraction.

Setting [1] is: "sensitized" assay, read-out: IC50, inhibition of the kinase activity of IKKε.
[2] abbreviates: in-vitro IKKε kinase inhibition assays, given as 0.005 μM (5 nM), read-out: IKKε kinase inhibitory activity (IC50 value).

For `CCN(CC)c1ccc(Nc2nccc(-c3ccc(OC4CCOCC4)c(C#N)c3)n2)cn1` [Example Compound 9, 5-(2-{[6-(Diethylamino)pyridin-3-yl]amino}pyrimidin-4-yl)-2-(tetrahydro-2H-pyran-4-yloxy)benzonitrile], the 50% inhibitory concentration (IC50) (in general, the concentration needed to halve the response being measured) is, setting by setting: under setting [1], under 5 nM; under setting [2], under 5 nM.

Regarding `CN(C)c1ccc(Nc2nccc(-c3ccc(OC4CCOCC4)c(C#N)c3)n2)cn1` [Example Compound 10, 5-(2-{[6-(Dimethylamino)pyridin-3-yl]amino}pyrimidin-4-yl)-2-(tetrahydro-2H-pyran-4-yloxy)benzonitrile], the IC50 under setting [1] was under 5 nM and the IC50 under setting [2] is under 5 nM.

Regarding `N#Cc1cc(-c2ccnc(Nc3cncc(C(=O)NCCO)c3)n2)ccc1OC1CCOCC1` [Example Compound 13, 5-({4-[3-Cyano-4-(tetrahydro-2H-pyran-4-yloxy)phenyl]pyrimidin-2-yl}amino)-N-(2-hydroxyethyl)pyridine-3-carboxamide], the IC50 under setting [2] was under 5 nM.

Consider `N#Cc1cc(-c2ccnc(Nc3cncc(CN4CCOCC4)c3)n2)ccc1OC1CCOCC1` [Example Compound 21, 5-(2-{[5-(Morpholin-4-ylmethyl)pyridin-3-yl]amino}pyrimidin-4-yl)-2-(tetrahydro-2H-pyran-4-yloxy)benzonitrile], for which the IC50 under setting [2] was under 5 nM.

`COCCNCc1cncc(Nc2nccc(-c3ccc(OC4CCOCC4)c(C#N)c3)n2)c1` [Example Compound 22, 5-{2-[(5-{[(2-Methoxyethyl)amino]methyl}pyridin-3-yl)amino]pyrimidin-4-yl}-2-(tetrahydro-2H-pyran-4-yloxy)benzonitrile]: the IC50 under setting [2] was under 5 nM.

For the compound `COc1cncc(Nc2nccc(-c3ccc(OC4CCOCC4)c(C#N)c3)n2)c1` [Example Compound 27, 5-{2-[(5-Methoxypyridin-3-yl)amino]pyrimidin-4-yl}-2-(tetrahydro-2H-pyran-4-yloxy)benzonitrile], the IC50 runs as follows: under setting [1], under 5 nM; under setting [2], under 5 nM.

With `N#Cc1cc(-c2ccnc(Nc3ccc(C(=O)N4CCC4)nc3)n2)ccc1OC1CCOCC1` [Example Compound 30, 5-(2-{[6-(Azetidin-1-ylcarbonyl)pyridin-3-yl]amino}pyrimidin-4-yl)-2-(tetrahydro-2H-pyran-4-yloxy)benzonitrile], the IC50 was under 5 nM under setting [1] and under 5 nM under setting [2].

Regarding `COC(=O)c1ccc(Nc2nccc(-c3ccc(OC4CCOCC4)c(C#N)c3)n2)cn1` [Example Compound 33, Methyl 5-({4-[3-cyano-4-(tetrahydro-2H-pyran-4-yloxy)phenyl]pyrimidin-2-yl}amino)pyridine-2-carboxylate], the IC50 under setting [1] is under 5 nM and the IC50 under setting [2] is under 5 nM.

With `COC(=O)c1cc(Nc2nccc(-c3ccc(OC4CCOCC4)c(C#N)c3)n2)ccn1` [Example Compound 36, Methyl 4-({4-[3-cyano-4-(tetrahydro-2H-pyran-4-yloxy)phenyl]pyrimidin-2-yl}amino)pyridine-2-carboxylate], the half-inhibitory concentration (IC50) under setting [2] was under 5 nM.

Take `COCCNc1cc(Nc2nccc(-c3ccc(OC4CCOCC4)c(C#N)c3)n2)ccn1` [Example Compound 38, 5-[2-({2-[(2-Methoxyethyl)amino]pyridin-4-yl}amino)pyrimidin-4-yl]-2-(tetrahydro-2H-pyran-4-yloxy)benzonitrile]: the IC50 under setting [2] was under 5 nM.

Take `COC1CCN(c2cc(Nc3nccc(-c4ccc(OC5CCOCC5)c(C#N)c4)n3)ccn2)C1` (centres unmarked) [Example Compound 39, 5-(2-{[2-(3-Methoxypyrrolidin-1-yl)pyridin-4-yl]amino}pyrimidin-4-yl)-2-(tetrahydro-2H-pyran-4-yloxy)benzonitrile]: the IC50 is under 5 nM under setting [1] and under 5 nM under setting [2].

On to `N#Cc1cc(-c2ccnc(Nc3ccnc(N4CCC[C@H]4CO)c3)n2)ccc1OC1CCOCC1` [Example Compound 40, 5-[2-({2-[(2S)-2-(Hydroxymethyl)pyrrolidin-1-yl]pyridin-4-yl}amino)pyrimidin-4-yl]-2-(tetrahydro-2H-pyran-4-yloxy)benzonitrile], for which the IC50 under setting [1] was under 5 nM and the IC50 under setting [2] is under 5 nM.

As to `N#Cc1cc(-c2ccnc(Nc3ccc(N4CC(O)C4)nc3)n2)ccc1OC1CCOCC1` [Example Compound 46, 5-(2-{[6-(3-Hydroxyazetidin-1-yl)pyridin-3-yl]amino}pyrimidin-4-yl)-2-(tetrahydro-2H-pyran-4-yloxy)benzonitrile], under setting [2], the IC50 is under 5 nM.

For the compound `CN(Cc1ccc(Nc2nccc(-c3ccc(OC4CCOCC4)c(C#N)c3)n2)cn1)S(C)(=O)=O` [Example Compound 55, N-{[5-({4-[3-Cyano-4-(tetrahydro-2H-pyran-4-yloxy)phenyl]pyrimidin-2-yl}amino)pyridin-2-yl]methyl}-N-methylmethanesulfonamide], the IC50 under setting [2] was under 5 nM.

As for `CN(Cc1ccc(Nc2nccc(-c3ccc(OC4CCOCC4)c(C#N)c3)n2)cn1)C(=O)C(C)(C)O` [Example Compound 56, N-{[5-({4-[3-Cyano-4-(tetrahydro-2H-pyran-4-yloxy)phenyl]pyrimidin-2-yl}amino)pyridin-2-yl]methyl}-2-hydroxy-N,2-dimethylpropanamide], the concentration for half-maximal inhibition (IC50) under setting [2] is under 5 nM.

Take `CC(O)c1ccc(Nc2nccc(-c3ccc(OC4CCOCC4)c(C#N)c3)n2)cn1` (centres unmarked) [Example Compound 61, 5-(2-{[6-(1-Hydroxyethyl)pyridin-3-yl]amino}pyrimidin-4-yl)-2-(tetrahydro-2H-pyran-4-yloxy)benzonitrile]: the 50% inhibitory concentration (IC50) under setting [2] was under 5 nM.

For `CC(=O)c1ccc(Nc2nccc(-c3ccc(OC4CCOCC4)c(C#N)c3)n2)cn1` [Example Compound 62, 5-{2-[(6-Acetylpyridin-3-yl)amino]pyrimidin-4-yl}-2-(tetrahydro-2H-pyran-4-yloxy)benzonitrile], the IC50 under setting [2] is under 5 nM.

As to `N#Cc1cc(-c2ccnc(Nc3ccnc(CO)c3)n2)ccc1OC1CCOCC1` [Example Compound 66, 5-(2-{[2-(Hydroxymethyl)pyridin-4-yl]amino}pyrimidin-4-yl)-2-(tetrahydro-2H-pyran-4-yloxy)benzonitrile], the IC50 under setting [2] was under 5 nM.

For the compound `N#Cc1cc(-c2ccnc(Nc3ccc(CNC(=O)N4CCOCC4)nc3)n2)ccc1OC1CCOCC1` [Example Compound 67, N-{[5-({4-[3-Cyano-4-(tetrahydro-2H-pyran-4-yloxy)phenyl]pyrimidin-2-yl}amino)pyridin-2-yl]methyl}morpholine-4-carboxamide], the IC50 under setting [2] is under 5 nM.

Take `CC(=O)NCc1ccc(Nc2nccc(-c3ccc(OC4CCOCC4)c(C#N)c3)n2)cn1` [Example Compound 68, N-{[5-({4-[3-Cyano-4-(tetrahydro-2H-pyran-4-yloxy)phenyl]pyrimidin-2-yl}amino)pyridin-2-yl]methyl}acetamide]: the 50% inhibitory concentration (IC50) under setting [2] is under 5 nM.

On to `COC1CN(Cc2cc(Nc3nccc(-c4ccc(OC5CCOCC5)c(C#N)c4)n3)ccn2)C1` [Example Compound 69, 5-[2-({2-[(3-Methoxyazetidin-1-yl)methyl]pyridin-4-yl}amino)pyrimidin-4-yl]-2-(tetrahydro-2H-pyran-4-yloxy)benzonitrile], for which, under setting [2], the IC50 is under 5 nM.

Take `CN(C)c1ccc(-c2ccc(Nc3nccc(-c4ccc(OC5CCOCC5)c(C#N)c4)n3)cn2)cn1` [Example Compound 81, 5-(2-{[6′-(Dimethylamino)-2,3′-bipyridin-5-yl]amino}pyrimidin-4-yl)-2-(tetrahydro-2H-pyran-4-yloxy)benzonitrile]: the IC50 is under 5 nM under setting [1] and under 5 nM under setting [2].

With `N#Cc1cc(-c2ccnc(Nc3cncc(N4CCOCC4)n3)n2)ccc1OC1CCOCC1` [Example Compound 89, 5-(2-{[6-(Morpholin-4-yl)pyrazin-2-yl]amino}pyrimidin-4-yl)-2-(tetrahydro-2H-pyran-4-yloxy)benzonitrile], the IC50 is under 5 nM under setting [1] and under 5 nM under setting [2].

(Values after patent publication US20140288044A1, “COMPOSITIONS AND THERAPEUTIC USES OF IKK-RELATED KINASE EPSILON AND TANKBINDING KINASE 1 INHIBITORS” (Alzheimer's Institute of America, Inc., priority 2011, published 2014).)
